[invAb] = 3' inverted deoxyabasic cap; [amino-N] = 2'-deoxy-2'-amino nucleotide (N: the base); [I] = hypoxanthine (inosine); m = 2'-O-methyl; r = 2'-OH (RNA)
Tested on: plus strand HCV RNA
Type: biochemical, Hepatitis C virus
Details: plus strand (+) HCV site, 50 mM Tris-Cl, pH 8.0, 40 mM Mg2+ at 37°, trace substrate, enzymatic nucleic acid concentration of 500 nM or greater

Row | Substance | % Substrate Cleaved in 3 hours [%]
1 | 22722 (ACCACCUUGAUGGCAUGCACUAUGCGCGACUCCAC; sugars from the 5' end mmmmmmmmrrrmmmmmrmmmmmmmmmrmmmmmmmm, [invAb] at 3' end, backbone not given here) [compound 22722] | 75.84
2 | 22748 (AGGUGAAGCCGAAAGGCGAGUGAGGUCUAGCUGAG; 2'-O-methyl at 1, 2, 3, 4, 5, 6, 7, 8, 9, 10, 11, 12, 13, 14, 15, 16, [amino-N] at 17, 27, [invAb] at 3' end, other sugars and backbone not given here) [compound 22748] | 80.28
3 | 22945 (GGAAGGACUGAUGAGGCCGUUAGGCCGAAAGGAUGC; 2'-O-methyl at 1, 2, 3, 4, 5, 6, 7, 15, 16, 17, 18, 19, 20, 21, 22, 23, 24, 25, 26, 31, 32, 33, 34, 35, 36, [invAb] at 3' end, other sugars and backbone not given here) [compound 22945] | 82.54
4 | 22778 (UGAUGGACUGAUGAGGCCGUUAGGCCGAANCUGUGA; ribozyme; 2'-O-methyl at 1, 2, 3, 4, 5, 6, 7, 15, 16, 17, 18, 19, 20, 21, 22, 23, 24, 25, 26, 31, 32, 33, 34, 35, 36, [I] at 30, [invAb] at 3' end, other sugars and backbone not given here) [compound 22778] | 83.77
5 | 22719 (UGGAAGAUGAUGGCAUGCACUAUGCGCGACUGAGA; sugars from the 5' end mmmmmmmmrrrmmmmmrmmmmmmmmmrmmmmmmmm, [invAb] at 3' end, backbone not given here) [compound 22719] | 69.88
6 | 22751 (GAGUUGAGCCGAAAGGCGAGUGAGGUCUUGGAGUG; 2'-O-methyl at 1, 2, 3, 4, 5, 6, 7, 8, 9, 10, 11, 12, 13, 14, 15, 16, [amino-N] at 17, 27, [invAb] at 3' end, other sugars and backbone not given here) [compound 22751] | 14.85
7 | 22720 (GGAGAGGUGAUGGCAUGCACUAUGCGCGAUAUACA; sugars from the 5' end mmmmmmmmrrrmmmmmrmmmmmmmmmrmmmmmmmm, [invAb] at 3' end, backbone not given here) [compound 22720] | 77.74
8 | 22776 (GGUGAACCUGAUGAGGCCGUUAGGCCGAANCUGAGA; ribozyme; 2'-O-methyl at 1, 2, 3, 4, 5, 6, 7, 15, 16, 17, 18, 19, 20, 21, 22, 23, 24, 25, 26, 31, 32, 33, 34, 35, 36, [I] at 30, [invAb] at 3' end, other sugars and backbone not given here) [compound 22776] | 84.55
9 | 22775 (AAGAGGACUGAUGAGGCCGUUAGGCCGAANAUAGAG; ribozyme; 2'-O-methyl at 1, 2, 3, 4, 5, 6, 7, 15, 16, 17, 18, 19, 20, 21, 22, 23, 24, 25, 26, 31, 32, 33, 34, 35, 36, [I] at 30, [invAb] at 3' end, other sugars and backbone not given here) [compound 22775] | 87.74
10 | 22749 (GGAAAAGGCCGAAAGGCGAGUGAGGUCUAACAGGA; 2'-O-methyl at 1, 2, 3, 4, 5, 6, 7, 8, 9, 10, 11, 12, 13, 14, 15, 16, [amino-N] at 17, 27, [invAb] at 3' end, other sugars and backbone not given here) [compound 22749] | 90.80
11 | 22973 (AGGUGAAGGCTAGCTACAACGAAGCUGAGN; 3' inverted abasic cap (B); Description of Artificial Sequence: Nucleic Acid; misc_feature (30)..(30): n stands for inverted deoxyabasic derivative; misc_feature (1)..(7): 2'-O-Methyl; misc_feature (23)..(29): 2'-O-Methyl) [compound 22973] | 83.15
12 | 22971 (AGGAAGAGGCTAGCTACAACGAAGAGAAAN; 3' inverted abasic cap (B); misc_feature (30)..(30): n stands for inverted deoxyabasic derivative; misc_feature (1)..(7): 2'-O-Methyl; misc_feature (23)..(29): 2'-O-Methyl) [compound 22971] | 92.11
13 | 22777 (CGAGGAACUGAUGAGGCCGUUAGGCCGAANAGAGGA; ribozyme; 2'-O-methyl at 1, 2, 3, 4, 5, 6, 7, 15, 16, 17, 18, 19, 20, 21, 22, 23, 24, 25, 26, 31, 32, 33, 34, 35, 36, [I] at 30, [invAb] at 3' end, other sugars and backbone not given here) [compound 22777] | 90.12
14 | 22723 (ACAGGUUUGAUGGCAUGCACUAUGCGCGAACUCGU; sugars from the 5' end mmmmmmmmrrrmmmmmrmmmmmmmmmrmmmmmmmm, [invAb] at 3' end, backbone not given here) [compound 22723] | 61.58
15 | 22779 (UGAGGAACUGAUGAGGCCGUUAGGCCGAANGUGGAG; ribozyme; 2'-O-methyl at 1, 2, 3, 4, 5, 6, 7, 15, 16, 17, 18, 19, 20, 21, 22, 23, 24, 25, 26, 31, 32, 33, 34, 35, 36, [I] at 30, [invAb] at 3' end, other sugars and backbone not given here) [compound 22779] | 82.22
16 | 22974 (CUGGUGAGGCTAGCTACAACGAGGAGGCUN; 3' inverted abasic cap (B); misc_feature (30)..(30): n stands for inverted deoxyabasic derivative; misc_feature (1)..(7): 2'-O-Methyl; misc_feature (23)..(29): 2'-O-Methyl) [compound 22974] | 57.82
17 | 22943 (GCUGAGACUGAUGAGGCCGUUAGGCCGAAACGAGGA; 2'-O-methyl at 1, 2, 3, 4, 5, 6, 7, 15, 16, 17, 18, 19, 20, 21, 22, 23, 24, 25, 26, 31, 32, 33, 34, 35, 36, [invAb] at 3' end, other sugars and backbone not given here) [compound 22943] | 89.67
18 | 22721 (UCUAAGGUGAUGGCAUGCACUAUGCGCGACACGGU; sugars from the 5' end mmmmmmmmrrrmmmmmrmmmmmmmmmrmmmmmmmm, [invAb] at 3' end, backbone not given here) [compound 22721] | 47.37
19 | 22975 (UGGUGUAGGCTAGCTACAACGAGCGUUGAN; 3' inverted abasic cap (B); Description of Artificial Sequence: Nucleic Acid; misc_feature (30)..(30): n stands for inverted deoxyabasic derivative; misc_feature (1)..(7): 2'-O-Methyl; misc_feature (23)..(29): 2'-O-Methyl) [compound 22975] | 75.77
20 | 22944 (UCCUGUUCUGAUGAGGCCGUUAGGCCGAAAUGUGCC; 2'-O-methyl at 1, 2, 3, 4, 5, 6, 7, 15, 16, 17, 18, 19, 20, 21, 22, 23, 24, 25, 26, 31, 32, 33, 34, 35, 36, [invAb] at 3' end, other sugars and backbone not given here) [compound 22944] | 90.33
21 | 22946 (CUCCACGCUGAUGAGGCCGUUAGGCCGAAACUCCUC; 2'-O-methyl at 1, 2, 3, 4, 5, 6, 7, 15, 16, 17, 18, 19, 20, 21, 22, 23, 24, 25, 26, 31, 32, 33, 34, 35, 36, [invAb] at 3' end, other sugars and backbone not given here) [compound 22946] | 78.06
22 | 22750 (AGAAGAAGCCGAAAGGCGAGUGAGGUCUACGAGGAN; 2'-O-methyl, 2'-amino and inverted abasic, amino positions listed inconsistently, further chemistry not given here) [compound 22750] | 80.64
23 | 22972 (UGAGAGAGGCTAGCTACAACGAGAGGAAGN; 3' inverted abasic cap (B); Description of Artificial Sequence: Nucleic Acid; misc_feature (30)..(30): "n" is an inverted deoxyabasic moiety; misc_feature (1)..(7): 2'-O-Methyl; misc_feature (23)..(29): 2'-O-Methyl) [compound 22972] | 86.38

Source: US20040127446A1 (priority 1992, published 2004)
